Results reported in patent US4104389A, “Antiallergic pyrido[2,1-b]quinazolin-ones” (Warner-Lambert Company, priority 1977, dated 1978).
Read-outs that look alike come from different tables or passages of the source.

Experiments:
[1] = tested on: antibody-antigen reactions (PCA); assay: PCA (rat), procedure of Herzig; reduction of allergic responses to antigen challenge; format: in vivo
Method: When tested in accordance with the procedure of Herzig [Immunopharmacology, M. E. Rosenthale and H. C. Mansmann, Eds., John Wiley and Son, N.Y., 1975], these compounds as shown in Table I may be administered orally, parenterally, or by aerosol at a dose of 0.005-20mg/kg. Compounds of this invention are useful in the management of allergic reactions such as bronchial asthma.

[2] = Netherlands Pat. No. 6,414,717; cited from earlier work
[3] = rat, iv., read-out: ED50 - PCA (rat) iv.

Row | SMILES | activity when given intravenously ([1]; intravenously) | activity when given orally ([1]; orally) | ED50 ([1]; rat, ip., read-out: ED50 - PCA (rat) ip.) [mg/kg] | ED50 [1, 3] [mg/kg] | ED50 ([1]; rat, po., read-out: ED50 - PCA (rat) po.) [mg/kg] | activity compared with isomers of the invention ([1]; comparison in words, Table I) | PCA (rat) inhibition, ip. ([1]; rat, ip., 10mg/kg) [%] | PCA (rat) activity, po., in words ([1]; rat, po., 10mg/kg) | anti-inflammatory action [2] | ED50 - PCA (rat) ip., in words ([1]; rat, ip., dose not given) | ED50 - PCA (rat) po., in words ([1]; rat, po., dose not given)
1 | O=C(O)c1ccc2nc3ccccc3c(=O)n2c1 [Example 1, 11-oxo-11H-pyrido[2,1-b]quinazoline-8-carboxylic acid] | active | active | 2 | 0.2 | 2 |  |  |  |  |  | 
2 | O=C(O)c1cccn2c(=O)c3ccccc3nc12 [Example 799] |  |  |  |  |  | less active | 21 | inactive | possesses anti-inflammatory action |  | 
3 | O=C(O)c1cc(=O)c2c(OCC(O)COc3cccc4oc(C(=O)O)cc(=O)c34)cccc2o1 [Intal] |  |  |  | 1 to 2 |  |  |  |  |  | inact. | inactive
